This note sets out measurements from patent US11932657B2, “Heterocyclic compound” (priority 2018, dated 2024).

SMILES strings stand for the structures.

The target of assay [1] is T1, aryl hydrocarbon receptor (AhR) (Homo sapiens, UniProt P35869).
T1 construct: DRE-Luc HepG2 cells subcultured in a 225 cm^2 flask; endogenous in cells; host or cells: HepG2 (ATCC), stably transfected with the reporter hCYP1A1/pGL4.27 (DRE-Luc HepG2)
T1 sequence (P35869 11-848): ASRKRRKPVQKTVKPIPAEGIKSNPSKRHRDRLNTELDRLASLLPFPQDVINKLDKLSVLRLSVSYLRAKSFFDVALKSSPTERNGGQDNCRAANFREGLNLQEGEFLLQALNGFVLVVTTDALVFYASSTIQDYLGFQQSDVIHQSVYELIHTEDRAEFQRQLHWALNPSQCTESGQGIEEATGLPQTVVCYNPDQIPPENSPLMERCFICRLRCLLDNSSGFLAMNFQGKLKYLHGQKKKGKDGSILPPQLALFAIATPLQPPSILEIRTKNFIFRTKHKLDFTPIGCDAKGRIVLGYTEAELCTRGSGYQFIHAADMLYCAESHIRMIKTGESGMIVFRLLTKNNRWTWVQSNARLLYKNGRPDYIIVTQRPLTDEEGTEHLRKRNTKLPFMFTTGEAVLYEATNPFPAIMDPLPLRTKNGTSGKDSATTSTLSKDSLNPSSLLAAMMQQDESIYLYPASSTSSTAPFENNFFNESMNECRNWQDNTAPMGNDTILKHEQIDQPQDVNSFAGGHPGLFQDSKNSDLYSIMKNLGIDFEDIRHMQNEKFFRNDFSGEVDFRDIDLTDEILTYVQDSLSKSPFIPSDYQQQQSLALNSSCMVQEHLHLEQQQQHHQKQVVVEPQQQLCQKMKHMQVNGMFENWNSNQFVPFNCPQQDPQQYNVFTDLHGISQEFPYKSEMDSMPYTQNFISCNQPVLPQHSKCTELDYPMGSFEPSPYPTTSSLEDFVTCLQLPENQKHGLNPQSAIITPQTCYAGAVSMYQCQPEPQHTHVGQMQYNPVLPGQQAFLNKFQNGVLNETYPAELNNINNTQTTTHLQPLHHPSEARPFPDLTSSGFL
Nature of the assay: AhR reporter gene assay (aryl hydrocarbon receptor antagonist activity, DRE-Luc HepG2 cells, TCDD-stimulated luciferase). The format is cell-based. A digest of the protocol: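 HepG2 cells stably carrying a human CYP1A1 promoter/DRE-driven luciferase reporter were pretreated with compound for 24 h at 37°C. TCDD (5×10^−10 M in the added solution) was then added for a further 24 h. Firefly luciferase luminescence was read as the measure of antagonism.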

Assay [2] has as its system immortalized megakaryocyte line (SeV2-MKCL). In words: Platelet production: static culturing of immortalized megakaryocyte line. Format: cell-based. To be noted: compound final concentration 0.1 μM, static culturing 6 to 7 days, control (DMSO) set to 1; platelets = CD41, CD42b and CD42a-positive cells. In short, it runs like this:
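SeV2-MKCL cells, washed free of doxycycline to stop forced expression, seeded at 1×10^5 cells/mL in IMDM-based medium with compound (final 0.1 μM) or DMSO, static culture 6–7 days, 37° C., 5% CO2. CD41/CD42a/CD42b-positive platelets counted by bead-corrected flow cytometry; platelets per megakaryocyte expressed as fold over DMSO control.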

By IC50 is commonly meant the midpoint of a concentration-inhibition curve. As for `CC1(C)COc2nc3c(NCCc4c[nH]c5ccccc45)nc(-c4ccc5ncnn5c4)nc3n21` [Example 111], the midpoint of inhibition in assay [1], the IC50, lay at 40 nM. Besides, the “Static (vs veh): fold increase of platelet production efficiency (PLT/MK)” value (shortened to “Static (vs veh): fold increase”) in assay [2] was 7.0.

For `CC1(C)CSc2nc3c(NCCc4ccc(O)c(-c5cccc(F)c5)c4)nc(-c4cncc(C#N)c4)nc3n21` [Example 37], inhibition in assay [1] was half-maximal at 0.53 nM (IC50). Also, in assay [2], the “Static (vs veh): fold increase” value was 2.1.

Molecule `C[C@@H]1CSc2nc3c(NCCc4ccc(O)c(-c5ccccc5)c4)nc(-c4cncc(F)c4)nc3n21` [Example 49] displayed an IC50 in assay [1] of 0.36 nM. In assay [2], the “Static (vs veh): fold increase” value was determined as 5.5.

The molecule `Cc1cncc(-c2nc(NCCc3ccc(O)c(-c4ccccc4F)c3)c3nc4n(c3n2)C(C)(C)CO4)c1` [Example 23] returned an IC50 in assay [1] of 9.6 nM. Further, the “Static (vs veh): fold increase” value in assay [2] is 8.0.

With `C[C@@H]1CSc2nc3c(NCCc4ccc(O)c(-c5ccccc5F)c4)nc(-c4cncc(C#N)c4)nc3n21` [Example 39], in assay [1], half-maximal inhibition (IC50) was put at 1.2 nM. Also, in assay [2], the “Static (vs veh): fold increase” value was found to be 4.3.

As for `CC1(C)C[S+]([O-])c2nc3c(NCCc4ccc(O)c(-c5ccccc5F)c4)nc(-c4cncc(F)c4)nc3n21` (centres unmarked) [Example 20], half-maximal inhibition in assay [1] (IC50) required 0.058 nM. For the same molecule, the “Static (vs veh): fold increase” value in assay [2] is on record as 6.5.

`CC1(C)COc2nc3c(NCCc4ccc(O)c(-c5ccc(F)cc5)c4)nc(-c4cncc(F)c4)nc3n21` [Example 4] displayed an IC50 in assay [1] of 5 nM. Also, the “Static (vs veh): fold increase” value in assay [2] came to 6.7.
